Molecular target: T1, DNA damage-binding protein 1 (DDB1) (Homo sapiens, UniProt Q16531)
T1 construct: with CUL4A
Test: AlphaScreen disruption of purified His-DDB1/GST-CUL4A interaction; in vitro Ni-NTA pulldown with recombinant proteins

T1 sequence (Q16531 whole entry): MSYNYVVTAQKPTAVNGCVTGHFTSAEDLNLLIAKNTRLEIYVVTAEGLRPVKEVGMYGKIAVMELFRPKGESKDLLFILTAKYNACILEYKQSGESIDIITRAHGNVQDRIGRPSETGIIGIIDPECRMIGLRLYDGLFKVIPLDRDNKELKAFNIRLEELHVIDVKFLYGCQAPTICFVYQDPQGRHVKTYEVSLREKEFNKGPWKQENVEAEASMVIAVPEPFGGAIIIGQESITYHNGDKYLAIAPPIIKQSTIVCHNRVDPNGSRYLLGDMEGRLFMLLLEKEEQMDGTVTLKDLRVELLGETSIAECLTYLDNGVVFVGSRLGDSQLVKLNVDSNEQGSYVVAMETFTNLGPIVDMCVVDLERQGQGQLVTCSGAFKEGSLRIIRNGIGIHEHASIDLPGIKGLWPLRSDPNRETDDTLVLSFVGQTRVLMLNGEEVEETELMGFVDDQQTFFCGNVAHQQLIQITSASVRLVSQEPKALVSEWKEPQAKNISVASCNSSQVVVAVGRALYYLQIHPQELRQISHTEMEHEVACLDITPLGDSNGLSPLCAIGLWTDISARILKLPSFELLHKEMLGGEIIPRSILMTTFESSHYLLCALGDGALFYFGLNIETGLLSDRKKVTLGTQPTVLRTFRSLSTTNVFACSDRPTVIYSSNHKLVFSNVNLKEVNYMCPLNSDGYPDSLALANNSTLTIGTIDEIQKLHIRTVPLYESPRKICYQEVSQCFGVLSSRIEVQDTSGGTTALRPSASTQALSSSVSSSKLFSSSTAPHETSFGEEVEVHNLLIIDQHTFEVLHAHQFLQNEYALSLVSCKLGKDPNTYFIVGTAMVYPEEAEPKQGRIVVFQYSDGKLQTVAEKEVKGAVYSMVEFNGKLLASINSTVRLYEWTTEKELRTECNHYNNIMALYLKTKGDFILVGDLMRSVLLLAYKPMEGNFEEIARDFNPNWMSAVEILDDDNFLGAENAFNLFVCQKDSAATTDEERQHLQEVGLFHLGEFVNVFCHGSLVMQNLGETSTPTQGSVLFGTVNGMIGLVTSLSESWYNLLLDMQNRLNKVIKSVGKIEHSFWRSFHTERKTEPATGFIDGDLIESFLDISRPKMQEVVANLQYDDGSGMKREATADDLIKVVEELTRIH
T1 sequence (Q13619 whole entry partner): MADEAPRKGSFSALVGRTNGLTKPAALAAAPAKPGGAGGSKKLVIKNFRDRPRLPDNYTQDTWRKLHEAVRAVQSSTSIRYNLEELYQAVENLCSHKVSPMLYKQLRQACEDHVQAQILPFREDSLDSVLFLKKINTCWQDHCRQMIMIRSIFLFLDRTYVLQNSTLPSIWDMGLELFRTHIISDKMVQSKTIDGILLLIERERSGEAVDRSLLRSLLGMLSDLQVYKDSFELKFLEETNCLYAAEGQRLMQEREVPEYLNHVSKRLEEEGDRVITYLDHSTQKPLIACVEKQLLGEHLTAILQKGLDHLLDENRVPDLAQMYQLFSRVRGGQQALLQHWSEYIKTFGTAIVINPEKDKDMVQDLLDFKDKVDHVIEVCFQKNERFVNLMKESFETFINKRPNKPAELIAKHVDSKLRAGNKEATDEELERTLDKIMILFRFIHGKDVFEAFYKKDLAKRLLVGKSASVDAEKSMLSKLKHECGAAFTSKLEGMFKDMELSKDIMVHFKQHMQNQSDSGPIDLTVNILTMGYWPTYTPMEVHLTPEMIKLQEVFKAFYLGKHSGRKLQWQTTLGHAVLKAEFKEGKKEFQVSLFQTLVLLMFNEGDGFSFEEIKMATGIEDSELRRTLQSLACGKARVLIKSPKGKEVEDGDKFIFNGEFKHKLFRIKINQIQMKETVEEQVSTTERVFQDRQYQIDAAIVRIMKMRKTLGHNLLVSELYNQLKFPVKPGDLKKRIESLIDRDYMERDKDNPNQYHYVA

In the case of `CC(=O)O[C@@H]1c2occc2[C@@H](O)C[C@H]2[C@]3(C)CC[C@H]4C(C)(C)CCC[C@]4(C)[C@H]3C[C@@]21C` [NSC1892], the IC50 is reported as 1800 nM.

— publication PMC7053343, “Small molecule NSC1892 targets the CUL4A/4B-DDB1 interactions and causes impairment of CRL4^DCAF4 E3 ligases to inhibit colorectal cancer cell growth” (International Journal of Biological Sciences, 2020)
